# Test results taken from US8975295B2, “Modulation of zinc levels to improve tissue properties” (Precision Dermatology, Inc., priority 2002, dated 2015).
# Where two headings read alike, the source gives them in different places.
# Assays:
# elastase = experiment: Elastase activity with divalent cations in PBS, read at 405 nm; assay type: biochemical; conditions: for Elastase activity: 0.005M to 0.01M cation concentration in PBS; for sensitivity of elastase to the cation (comparison of the ions): read every minute for 15 minutes
# Description: An assay was run that involved varying concentrations of each divalent cation, ranging from concentrations of 0.005M to 1.0M, in phosphate buffered saline (PBS). The positive control contained no cations, while the negative control contained no elastase. Solutions were read at 405 nm every minute for 15 minutes under controlled conditions. The optical density value of the negative control, which represented background interference, was subtracted from each result. These corrected optical density values from the two trials were averaged.
# epidermis = tested on: epidermis
# Description: (§1) To prepare these solutions, a 1.0 M stock of zinc acetate [ZnAc*(H2O)2] (Mallinkrodt Lot 8740 KPRK) was prepared in sterile phosphate buffered saline (PBS, pH 7.2, Gibco BRL Lot #1111327) by dissolving 109.75 g in 500 mL. To 0.2 ml of Cetaphil® moisturizer base was added 20 μl of solution a, b, c, or d depending upon group (corresponding to Groups “A,” “B,” “C,” or “D”). For group A, added 20 μl PBS alone to 180 μl Cetaphil×84 tubes. For group B, added 20 μl 1.0M Zn to 180 μl Cetaphil×84 tubes. For group C, added 200 μl of 1.0M Zn to 19.8 ml PBS, vortexed, labeled as 0.01M Zn, and added 20 μl of […] to 180 μl Cetaphil×84 tubes. For group D, added 200 μl 0.01M Zn to 19.8 ml PBS, vortexed, labeled as 0.1 mM Zn, and added 20 μl […] to 180 μl Cetaphil×84 tubes. After addition of samples to moisturizer base, the samples were mixed to homogeneity and stored at 4° C. overnight. At N=4 per treatment group, C57 Black Six mice at 8 weeks of age were anesthetized with 3% isoflurane by inhalation, and were shaved at mid-scapular dorsal region. Moisturizer was applied daily at 0.2 cc per day for each group for a 21 day period. After 21 days application, the treated skin segment was harvested en bloc and subdivided into three equal portions: a cranial portion, a left lateral portion, and a right lateral portion. The cranial portion and the left lateral portion were fixed in 10% neutral buffered formalin for 12-16 hours, then rinsed in 70% ethanol and embedded in paraffin. The right lateral portion was snap frozen in OCT medium at the time of harvest and stored at −35° C. until use.
# Paraffin-embedded specimens from animals treated in example 1 above were sectioned at 4-6 microns, deparaffinized, and stained with a combination of Verhoeff elastica stain and the Masson trichrome stain for morphological assessment of epidermal thickness. All procedures and analyses were performed by blinded observers. […] Images were analyzed using Image Pro Plus software (Media Cybernetics, Silver Spring, Md.) to determine total cross-sectional area of epidermis over standardized lengths. Mean and standard error were assessed using Statview (Abacus Concepts, Berkeley, Calif.), with comparisons made using ANOVA repeated measures and significance determined at 95% with post-hoc testing using Fisher PLSD or Scheffe F-test.
# Paraffin-embedded specimens from animals were treated in Example 1 except that the doses of 10.0 μM Zn^++, 1.0 μM Zn^++, 0.1 μM Zn^++, and the control were applied for 42 days. Specimens were fixed and embedded as above, sectioned at 4-6 microns, deparaffinized, and stained with a combination of Verhoeff elastica stain and the Masson trichrome stain for morphological assessment of epidermal thickness. All procedures and analyses were performed by blinded observers. […] Images were analyzed using Image Pro Plus software (Media Cybernetics, Silver Spring, Md.) to determine total cross-sectional area of epidermis over standardized lengths. Mean and standard error were assessed using Statview (Abacus Concepts, Berkeley, Calif.), with comparisons made using ANOVA repeated measures and significance determined at 95% with post-hoc testing using Fisher PLSD or Scheffe F-test.
# murine skin = conditions: for local irritation of skin: 21 days topical
# Description: as §1
# All procedures and analyses were performed by blinded observers.
# hypodermal brown fat = conditions: 21 days, base only 456566.375
# Description: as §1
# (§2) All procedures and analyses were performed by blinded observers. […] Images were analyzed using Image Pro Plus software (Media Cybernetics, Silver Spring, Md.) to determine total cross-sectional area of epidermis over standardized lengths. Mean and standard error were assessed using Statview (Abacus Concepts, Berkeley, Calif.), with comparisons made using ANOVA repeated measures and significance determined at 95% with post-hoc testing using Fisher PLSD or Scheffe F-test.
# deep white fat = conditions: 10 μM Zn++, 21 days, lateral abdomen; base only 29375.425; P = 0.0001
# Description: as §2
Compound,Elastase activity (elastase),sensitivity of elastase to the cation (comparison of the ions) (elastase),"Epidermal area across standardized epidermal lengths, Mean (epidermis; 0.1 μM Zn++ (Z low), 42 days, base only 6728.286)","Epidermal area across standardized epidermal lengths, Mean (epidermis; 1.0 μM Zn++ (Z med), 42 days, base only 6728.286)","Epidermal area across standardized epidermal lengths, Mean (epidermis; 10 μM Zn++ (Z high), 42 days, base only 6728.286, P = 0.0014)","Epidermal area across standardized epidermal lengths, Mean (epidermis; 10.0 μM Zn++ (Z low), 21 days, base only 18221.646)","Epidermal area across standardized epidermal lengths, Mean (epidermis; 1.0 mM Zn++ (Z med), 21 days, base only 18221.646)","Epidermal area across standardized epidermal lengths, Mean (epidermis; 100 mM Zn++ (Z high), 21 days, base only 18221.646)",elastase function as the concentration of zinc-containing components increases (elastase; increasing concentration),"elastin content of skin (black elastic fibers, Verhoeff Elastica stain) (murine skin; 21 days daily topical, 10 μM, 1.0 mM, 100 mM Zn++ in moisturizer base vs base only)","local irritation of skin (murine skin; high dose, 100 mM Zn++ (Z high))","local irritation of skin (murine skin; lower doses (Z low, Z med))","Cross-sectional hypodermal adipose area across standardized epidermal lengths, Mean (hypodermal brown fat; 10 μM Zn++ (Z low), P=0.0001)","Cross-sectional hypodermal adipose area across standardized epidermal lengths, Mean (hypodermal brown fat; 1.0 mM Zn++ (Z med))","Cross-sectional hypodermal adipose area across standardized epidermal lengths, Mean (hypodermal brown fat; 100 mM Zn++ (Z high))","Cross-sectional deep adipose area across standardized epidermal lengths, Mean (deep white fat)"
[Mg+2] [Mg^2+],increased,least sensitive,–,–,–,–,–,–,–,–,–,–,–,–,–,–
"CC(=O)[O-].CC(=O)[O-].[Zn+2] [Zn^++, zinc acetate]",increased,most constantly inhibited,6710.000 pixels,7724.190 pixels,7203.875 pixels,16786.125 pixels,20799.188 pixels,27365.292 pixels,"stabilizing, then destabilizing, then restabilizing elastase function",dose-dependant increases in the elastin content of skin,epidermal sloughing and irritation occurs,without local signs of irritation,436809.417 pixels,377185.833 pixels,132251.333 pixels,73011.321 pixels
[Ca+2] [Ca^2+],increased,most sensitive,–,–,–,–,–,–,–,–,–,–,–,–,–,–
